Measurements from US5750104A, “High buffer-containing enteric coating digestive enzyme bile acid compositions and method of treating digestive disorders therewith” (Digestive Care Inc., priority 1996, dated 1998).

Key:
pancreatic enzymes = experiment: Compatibility and biological activity of pancreatic enzymes in acidic UDCA compositions; type: biochemical; conditions: acidic form of UDCA
From the text: Pancreatic enzymes and salts of UDCA complement one another in the digestive system of a mammal. A dietary supplement containing both the enzymes and salts of UDCA would provide in a convenient pre-determined dose the remedy needed to treat the above-described diseased states. […] Lipase is especially affected by the low pH for the reasons that: […]

[1] = cited from earlier work

C[C@H](CCC(=O)O)[C@H]1CC[C@H]2[C@@H]3[C@@H](O)C[C@@H]4C[C@H](O)CC[C@]4(C)[C@H]3CC[C@]12C [UDCA, ursodeoxycholic acid]
compatibility with pancreatic enzymes (pancreatic enzymes): incompatible with pancreatic enzymes
benefit at higher dosage ([1]; about 30 mg/kg of body weight, some patients): limited benefits
effect on liver function ([1]; human, in vivo): augmenting liver function
undesirable side effects ([1]; human, in vivo): severe diarrhea
effect on nutritional state ([1]; patients having cystic fibrosis, hepatobiliary complications): improving the nutritional state
